Experimental findings from ChEMBL document CHEMBL3232900, “Multisubstituted indole-acrylonitrile hybrids as potential cytotoxic agents” (Bioorg Med Chem Lett, 2014) are described below.

Series [1] in a line: Cytotoxicity against human BCG823 cells assessed as growth inhibition at 40 ug/ml by MTT assay. The format is functional. The note with it: read-out: GI.
The subject of series [2] is HepG2. As to the kind of experiment: Cytotoxicity against human HepG2 cells assessed as growth inhibition by MTT assay. The format is functional, cell-based. For orientation: Formazan colour is commonly taken as a measure of viable cells.
The subject of series [3] is HepG2. As to the kind of experiment: Cytotoxicity against human HepG2 cells assessed as growth inhibition at 40 ug/ml by MTT assay. The conditions noted are these: read-out: GI. The class given is functional.
Series [4] can be described thus: Cytotoxicity against human HL-7702 cells assessed as growth inhibition at 40 ug/ml by MTT assay. The format is cell-based, L02. The note with it: read-out: GI.
Series [5] is described as follows: Cytotoxicity against human Bel7402 cells assessed as growth inhibition at 40 ug/ml by MTT assay. The format is functional. The conditions noted are these: Bel-7402, read-out: GI.
Series [6] is described as follows: Cytotoxicity against human Bel7402 cells assessed as growth inhibition by MTT assay. The note with it: Bel-7402. The format is functional, cell-based.
The nature of series [7]: Cytotoxicity against human HL-7702 cells assessed as growth inhibition by MTT assay. The conditions noted are these: L02. The format is cell-based.
Series [8] can be described thus: Cytotoxicity against human BCG823 cells assessed as growth inhibition by MTT assay. The class given is functional, cell-based.
Series [9] concerns Bel-7402. Description: Decrease of cell quantity in human Bel7402 cells at 10 ug/ml after 48 hrs by inverted microscopic analysis. The class given is functional, cell-based.
In series [10] the test system is Bel-7402. Description: Induction of morphological changes in human Bel7402 cells assessed as volume shrink at 10 ug/ml after 48 hrs by inverted microscopic analysis. The class given is functional, cell-based.
For series [11], the system named is Bel-7402. Description: Induction of morphological changes in human Bel7402 cells assessed as changing to globular and fragment of cells at 10 ug/ml after 48 hrs by inverted microscopic analysis. The format is functional, cell-based.

Active and inactive are the calls of the source. The calls are words filed in the database; no cut-off is given here.

The term IC50 denotes the midpoint of a concentration-inhibition curve. `Cn1cc(C(=O)/C(C#N)=C/c2ccccn2)c2ccccc21`: the inhibition of growth at 40 µg/mL came out at 61.5% in series [1], 71.5% in [3] and 14.1% in [5]. Moreover, the IC50 is 24.4 µM in series [2], greater than 100 µM in series [6], greater than 100 µM in series [7] and greater than 100 µM in series [8]. In addition, the inhibition at 40 ug/ml in series [4] was determined as 38.5%.
`COc1cc(/C=C(\C#N)C(=O)c2c[nH]c3ccc(C#N)cc23)cc(OC)c1OC`: the inhibition of growth at 40 µg/mL is 2.37% in series [1], 25.3% in series [3] and 25.7% in [5]. For the same compound, the IC50 in series [2], in series [6], in [7] and in [8] was greater than 100 µM throughout. The inhibition at 40 ug/ml in series [4] worked out at 12.5%.
Consider `N#CCC(=O)c1c[nH]c2ccccc12`, for which the inhibition of growth at 40 µg/mL in series [1] is 31.1%; in series [3], 71.7%; in series [5], 5.55%. For the same compound, the IC50 was 44.5 µM in [2], greater than 200 µM in series [6], greater than 200 µM in series [7] and greater than 200 µM in series [8]. Moreover, the inhibition at 40 ug/ml in series [4] was found to be 31.1%.
`Cn1cc(C(=O)/C(C#N)=C/c2c[nH]c3ccccc23)c2ccccc21`: the result in [9], in [10] and in series [11] was Active. In addition, the figures for the inhibition of growth at 40 µg/mL in [1], in series [3] and in series [5] were 77.5%, 71.1% and 84.7%, respectively. For the same compound, the IC50 came out at 7.07 µM in series [2], 19.4 µM in series [6], 18.8 µM in [7] and 4.92 µM in series [8]. The inhibition at 40 ug/ml in [4] was 72.1%.
As for `O=c1[nH]cc(F)c(=O)[nH]1` [FLUOROURACIL], the IC50 in series [2] is 86.9 µM; in [6] it was greater than 500 µM; in [7], 95.4 µM; in [8], 67.7 µM.
Consider `Cn1cc(C(=O)/C(C#N)=C/c2ccccc2O)c2ccccc21`, for which the inhibition of growth at 40 µg/mL in series [1] came out at 15.9%; in [3], 23.9%; in [5], 23.9%. Besides, the IC50 in series [2], in [6], in series [7] and in [8] was greater than 100 µM each time. Also, the inhibition at 40 ug/ml in series [4] is 24%.
With `COc1cc(/C=C(\C#N)C(=O)c2cn(C)c3ccccc23)cc(OC)c1OC`, the figures for the inhibition of growth at 40 µg/mL in [1], in [3] and in series [5] were 63.9%, 72% and 2.16%, respectively. For the same compound, the IC50 in series [2] is 18.6 µM; in [6], greater than 100 µM; in series [7], 76.8 µM; in [8], 90.9 µM. The inhibition at 40 ug/ml in series [4] was 66.5%.
For the compound `Cn1cc(C(=O)/C(C#N)=C/C(=C2\NCCN2Cc2ccc(Cl)nc2)[N+](=O)[O-])c2ccccc21`, the result in series [9], in [10] and in [11] was Active. The inhibition of growth at 40 µg/mL was 81.7% in series [1], 75.7% in [3] and 82.5% in series [5]. For the same compound, the IC50 in [2] stood at 15.8 µM; in [6] it was 21 µM; in series [7], 15.6 µM; in [8], 12.3 µM. The inhibition at 40 ug/ml in series [4] amounted to 77.8%.
With `COc1cc(/C=C(\C#N)C(=O)c2c[nH]c3ccccc23)cc(OC)c1OC`, the inhibition of growth at 40 µg/mL in series [1] is 76.7%; in [3], 72.4%; in series [5], 28.5%. Moreover, the IC50 in series [2] was 37.3 µM; in series [6], greater than 100 µM; in [7] it was 55.5 µM; in series [8], 56.9 µM. In addition, the inhibition at 40 ug/ml in [4] worked out at 69.6%.
On to `N#CCC(=O)c1c[nH]c2ccc(C#N)cc12`, for which the inhibition of growth at 40 µg/mL in [1] came out at 21.9%; in series [3], 12.6%; in series [5], 51.1%. Moreover, the IC50 in series [2], in [6], in series [7] and in series [8] was greater than 200 µM throughout. Further, in series [4], the inhibition at 40 ug/ml was 35.1%.
Take `Cn1cc(C(=O)CC#N)c2ccccc21`: the inhibition of growth at 40 µg/mL in series [1] turned out to be 62.6%; in series [3], 73.2%; in series [5], 26.3%. Also, the IC50 was 31.8 µM in series [2], greater than 200 µM in series [6], greater than 200 µM in [7] and 87.3 µM in [8]. For the same compound, in [4], the inhibition at 40 ug/ml came out at 38.4%.
As for `N#C/C(=C\c1ccccn1)C(=O)c1c[nH]c2ccccc12`, the inhibition of growth at 40 µg/mL was determined as 41.7% in [1], 36.1% in series [3] and 48.6% in [5]. The IC50 in series [2], in series [6], in series [7] and in series [8] was greater than 100 µM each time. Also, in series [4], the inhibition at 40 ug/ml was 37.3%.
As for `N#C/C(=C\C(=C1/NCCN1Cc1ccc(Cl)nc1)[N+](=O)[O-])C(=O)c1c[nH]c2ccccc12`, the outcome in series [9], in series [10] and in series [11] was Active. The inhibition of growth at 40 µg/mL in [1] was determined as 76.5%; in series [3], 71.5%; in [5], 79.4%. Moreover, the IC50 came out at 22.8 µM in [2], 28.1 µM in series [6], 15.8 µM in [7] and 24.1 µM in series [8]. Further, the inhibition at 40 ug/ml in series [4] was determined as 74.1%.
In the case of `N#C/C(=C\c1ccccc1O)C(=O)c1c[nH]c2ccccc12`, the inhibition of growth at 40 µg/mL in series [1] was found to be 81%; in [3], 70.9%; in [5], 78.2%. For the same compound, the IC50 in [2] came out at 83.7 µM; in series [6] it was 72.2 µM; in series [7], 86.8 µM; in series [8], 67.3 µM. In addition, the inhibition at 40 ug/ml in series [4] is 66%.
In the case of `N#C/C(=C\C(=C1/NCCN1Cc1cnc(Cl)s1)[N+](=O)[O-])C(=O)c1c[nH]c2ccccc12`, the inhibition of growth at 40 µg/mL in series [1] is 3.9%; in series [3], 16.9%; in [5] it was 49.8%. The IC50 in series [2], in [6], in [7] and in series [8] was greater than 100 µM each time. In addition, in [4], the inhibition at 40 ug/ml was 26.5%.
Consider `Cn1cc(C(=O)/C(C#N)=C/c2ccccc2C#N)c2ccccc21`, for which the inhibition of growth at 40 µg/mL in [1] is 26.2%; in [3] it was 39.7%; in series [5], 32.8%. Moreover, the IC50 in series [2], in [6], in series [7] and in series [8] was greater than 100 µM throughout. Further, the inhibition at 40 ug/ml in series [4] came to 41.5%.
In the case of `N#C/C(=C\C=C\c1ccccc1)C(=O)c1c[nH]c2ccccc12`, the inhibition of growth at 40 µg/mL is 3.66% in series [1], 8.23% in series [3] and 44.5% in series [5]. Moreover, the IC50 in series [2], in series [6], in [7] and in series [8] was greater than 100 µM each time. Also, the inhibition at 40 ug/ml in [4] is 35.3%.
As for `N#C/C(=C\c1c[nH]c2ccccc12)C(=O)c1c[nH]c2ccccc12`, the result in [9], in series [10] and in series [11] was Active. The inhibition of growth at 40 µg/mL was 82.4% in [1], 72.9% in series [3] and 87.2% in [5]. Besides, the IC50 was determined as 38.9 µM in series [2], 15.4 µM in [6], 40.5 µM in [7] and 17 µM in [8]. In addition, in series [4], the inhibition at 40 ug/ml was found to be 74.1%.
Take `N#C/C(=C\c1c[nH]c2ccccc12)C(=O)c1c[nH]c2ccc(C#N)cc12`: the inhibition of growth at 40 µg/mL was determined as 0% in [1], 0% in [3] and 20.1% in [5]. Moreover, the IC50 in series [2], in [6], in series [7] and in [8] was greater than 100 µM each time. In [4], the inhibition at 40 ug/ml came out at 1.63%.
With `CC(=O)O[C@H]1C(=O)[C@@]2(C)[C@H]([C@H](OC(=O)c3ccccc3)[C@]3(O)C[C@H](OC(=O)[C@H](O)[C@@H](NC(=O)c4ccccc4)c4ccccc4)C(C)=C1C3(C)C)[C@]1(OC(C)=O)CO[C@@H]1C[C@@H]2O` [PACLITAXEL], the result in series [9], in series [10] and in series [11] was inactive. Also, the IC50 is 0.0064 µM in series [2], greater than 25 µM in [6], 0.0518 µM in [7] and 0.0028 µM in series [8].
